Laboratory results: patent publication US20250049967A1, “PET TRACERS FOR V[…] GAMMA1 RECEPTORS” (Hoffmann-La Roche Inc., priority 2022, published 2025)

Key:
[1] = target: human GABAA α1β3γ2 receptor (Homo sapiens (Human), UniProt P14867+P18507); test: Binding assay, competition for [^3H]Flumazenil, HEK293F cells; conditions: for γ2/γ1 Selectivity Ratio: Ki α1β3γ2 (nM)/Ki α2β2γ1 (nM)
Description: The affinity of compounds at GABAA γ2 subunit-containing receptors was measured by competition for [^3H]Flumazenil (81.1 Ci/mmol; Roche) binding to HEK293F cells expressing human (transiently transfected) receptors of composition α1β3γ2.
Harvested pellets from HEK293F cells expressing the different GABAA γ2 receptor subtypes were resuspended in Mannitol Buffer pH 7.2-7.4 and processed as described above for the cells expressing the GABAA γ1 subunit-containing receptors.
Assays were incubated to equilibrium for 1 hour at 4° C. and harvested onto GF/C uni-filters (Packard) by filtration using a Packard harvester and washing with ice-cold wash buffer (50 mM Tris; pH 7.5). After anhydrousing, filter-retained radioactivity was detected by liquid scintillation counting. Ki values were calculated using Excel-Fit (Microsoft) and are the means of two determinations.

[2] = target: human GABAA α1β2γ1 receptor (Homo sapiens (Human), UniProt P14867+Q8N1C3); test: Binding assay, competition for [^3H]RO7239181, membranes from HEK293F cells
Description: (§1) Harvested pellets from HEK293F cells expressing the different GABAA receptor subtypes were resuspended in Mannitol Buffer pH 7.2-7.4 (Mannitol 0.29M, Triethylamine 10 mM, Acetic acid 10 mM, EDTA 1 mM plus protease inhibitors (20 tablets Complete, Roche Diagnostics Cat. No. 05 056 489 001 per liter)), washed two times and then resuspended at 1:10 to 1:15 dilution in the same buffer. Cell disruption was performed by stirring the suspension in a Parr vessel #4637 at 435 psi for 15 minutes, and then the suspensions were centrifuged at 1000×g for 15 minutes at 4° C. (Beckman Avanti J-HC; rotor JS-4.2). The supernatant (S1) was transferred in a 2 l Schott flask and the pellet (P1) was resuspended with Mannitol Buffer up to 175 ml. The resuspended pellet was transferred into a 250 ml Corning centrifugal beaker and centrifuged at 1500×g for 10 minutes at 4° C. (Beckman Avanti J-HC; rotor JS-4.2). The supernatant (S1) was then transferred in the 2 l Schott flask and the pellet was discarded. […] The P2 and P3 protein concentration was determined with the BIORAD Standard assay method with bovine serum albumin as standard and measured on the NANO-Drop 1000. […]
(§2) Membrane homogenates were resuspended and polytronised (Polytron PT1200E Kinematica AG) in Potassium Phosphate 10 mM, KCl 100 mM binding buffer at pH 7.4 to a final assay concentration determined with a previous experiment. […]

[3] = target: human GABAA α2β2γ1 receptor (Homo sapiens (Human), UniProt P47869+Q8N1C3); test: as above
Description: as §1, §2

h-GABA-A α2β2γ1 receptor = h-GABA-A α2β2γ1 receptor (Homo sapiens (Human), UniProt P47869+Q8N1C3); test: Xenopus oocyte two-electrode voltage clamp electrophysiology, modulation of GABA EC20 current; type: cell-based; conditions: for Efficacy (GABA)%: % modulation of GABA EC20 = 100*(Fold increase−1), compound at 30-fold Ki α2β2γ1; for Potentiation of GABA-induced current in α2β2γ1 expressing oocytes: reference PAMs, GABA EC20
Description: Xenopus laevis oocytes at maturation stages V-VI were used for the expression of cloned mRNA encoding GABAA receptor subunits. Oocytes ready for RNA micro-injection were bought from Ecocyte, Castrop-Rauxel, Germany and stored in modified Barth's medium (composition in mM: NaCl 88, KCl 1, NaHCO3 2.4, HEPES 10, MgSO4 0.82, CaNO3 0.33, CaCl2 0.33, pH=7.5) at 20° C. until the experiment.
Oocytes were plated in 96-well plates for microinjection using the Roboinject automated instrument (MultiChannelSystems, Reutlingen, Germany). Approximately 50 nL of an aqueous solution containing the RNA transcripts for the subunits of the desired GABAA receptor subtype was injected into each oocyte. […] Oocytes were kept in modified Barth's medium (composition in mM: NaCl 88, KCl 1, NaHCO3 […], HEPES 10, MgSO4 0.82, CaNO3 0.33, CaCl2 0.33, pH=7.5) at 20° C. until the experiment.
Electrophysiological experiments were performed using the Roboocyte instrument (MultiChannelSystems, Reutlingen, Germany) on days 3 to 5 after the micro-injection of mRNA. During the experiment the oocytes were constantly superfused by a solution containing (in mM) NaCl 90, KCl 1, HEPES 5, MgCl2 1, CaCl2 1 (pH 7.4). Oocytes were impaled by two glass microelectrodes (resistance: 0.5-0.8 MΩ) which were filled with a solution containing KCl 1M+K-acetate 1.5 M and voltage-clamped to −80 mV. The recordings were performed at room temperature using the Roboocyte two-electrode voltage clamp system (Multichannelsystem). After an initial equilibration period of 1.5 min GABA was added for 1.5 min at a concentration evoking approximately 20% of a maximal current response (EC20). After another rest interval of 2.5 min GABA was again added evoking a response of similar amplitude and shape. […] Current traces were recorded at a digitization rate of 10 Hz during and shortly before and after the GABA application.
Each compound and concentration was tested on at least 3 oocytes. Different oocytes were used for different compound concentrations.
For the analysis, the digitized current traces of the first and second GABA response were superimposed and, if necessary, rescaled to equal maximal amplitudes. The ratio between the two responses during the time interval of test compound application was calculated point by point. The extremum of the resulting “ratio trace” was taken as the efficacy (“Fold increase”) of the compound expressed as “% modulation of GABA EC20” (100*(Fold increase−1)).

GABAA γ1 receptor [4] = target: GABAA γ1 receptor (Mus musculus (Mouse), UniProt Q9R0Y8); test: In vitro autoradiography, coronal brain sections of GABAA γ1 knockout and wild-type mice; type: binding; conditions: 0.3 nM radioligand, 30 minutes room temperature, knockout vs wild-type mouse brain sections
Sequence of GABAA γ1 receptor (Mus musculus (Mouse), UniProt Q9R0Y8) (Q9R0Y8 36-465 limits assumed): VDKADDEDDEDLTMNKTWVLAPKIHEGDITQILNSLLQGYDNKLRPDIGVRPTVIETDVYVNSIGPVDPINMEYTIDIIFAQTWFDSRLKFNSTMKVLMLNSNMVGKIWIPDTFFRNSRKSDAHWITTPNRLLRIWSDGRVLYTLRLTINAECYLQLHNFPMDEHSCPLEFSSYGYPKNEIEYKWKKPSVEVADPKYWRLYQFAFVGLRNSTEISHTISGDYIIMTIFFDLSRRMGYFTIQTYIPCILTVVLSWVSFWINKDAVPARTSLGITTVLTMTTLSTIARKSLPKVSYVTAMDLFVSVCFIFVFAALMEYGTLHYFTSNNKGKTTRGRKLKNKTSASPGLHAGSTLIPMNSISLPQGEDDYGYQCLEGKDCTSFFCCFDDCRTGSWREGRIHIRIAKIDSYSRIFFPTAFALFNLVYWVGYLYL
Description: Autoradiographical analyses of [^3H]-(I) and [^3H]-(II) were performed with coronal brain sections from GABAA γ1 receptor knockout mice (C57BL/6NTac-Gabrg1) and wild-type controls. Tissue sections (10 μm) were cut in a cryostat, thaw-mounted on microscope glass slides and incubated in incubation buffer (50 mM Tris-HCl, pH 7.4) containing 0.3 nM radioligand (molar activity 83 Ci/mmol and 81 Ci/mmol for [^3H]-(II) and [^3H]-(I), respectively) at room temperature for 30 minutes. After incubation, all sections were rinsed three times in ice-cold wash buffer (50 mM Tris-HCl, pH 7.4) for 10 minutes and dipped three times in distilled water at 4° C. Slide-mounted brain sections were dried in a ventilated fridge for at least 2 hours and exposed to a Fuji Imaging Plate for 5 days. The imaging plate was scanned at a resolution of 25 μm in a Fujifilm high-resolution plate scanner. Visualization and quantification of autoradiographies was performed by the MCID™ image analysis program.

GABAA γ1 receptor [5] = test: In vivo PET scans in baboons, regional time-activity curves; design: species or system papio anubis olive brown baboons; conditions: baboon, intravenous bolus approx. 700 MBq, 90 min scan
Description: PET imaging experiments were performed in male papio anubis olive brown baboons to examine the characteristics of [^11C]-(I) and [^11C]-(II) in vivo. The final radiotracer product was radiochemically pure (>95%) up to 40 min post its end of synthesis with an average final calculated specific activity of >555 GBq/μmol. The PET camera used was the Siemens HRRT with an in-plane field-of-view (FOV) of 30 cm and an axial FOV of 24 cm. Each dynamic PET scan started with an intravenous bolus injection of the radiotracer (approx. 700 MBq) and continued for 90 min in a 3D list mode. A set of volumes of interest (VOIs) for 16 brain regions were defined on MRIs of individual animals referring to a standard VOI template. VOIs were transferred to PET space using the coregistration parameters to generate time-activity curves (TACs) of brain regions.

Structure (SMILES): CN1C(=O)CN=C(c2cc(O)ccc2Cl)c2cc(Cl)ccc21 [RE-A, reference compound]
- Ki [1]: 1.5 nM
- γ2/γ1 Selectivity Ratio [1]: 0.54
- Ki [2]: 6.84 nM
- Ki [3]: 2.79 nM

Structure (SMILES): Cc1ccc2c(c1Cl)C(c1cc(O)ccc1F)=NCC(=O)N2C [Example 2, 6-chloro-5-(2-fluoro-5-hydroxy-phenyl)-1,7-dimethyl-3H-1,4-benzodiazepin-2-one]
- γ2/γ1 Selectivity Ratio [1]: 39.0
- Efficacy (GABA)% (h-GABA-A α2β2γ1 receptor): 70%

Structure (SMILES): CN1C(=O)CN=C(c2ccccc2F)c2cc([N+](=O)[O-])ccc21 [Flunitrazepam]
- Potentiation of GABA-induced current in α2β2γ1 expressing oocytes (h-GABA-A α2β2γ1 receptor): ~60%

Structure (SMILES): Cc1ncc2n1-c1ccc(Cl)cc1C(c1ccccc1F)=NC2 [Midazolam]
- Potentiation of GABA-induced current in α2β2γ1 expressing oocytes (h-GABA-A α2β2γ1 receptor): ~60%

Structure (SMILES): [3H]C([3H])([3H])N1C(=O)CN=C(c2cc(O)ccc2F)c2c1ccc(C)c2Cl [[^3H]-(II), 6-Chloro-5-(2-fluoro-5-hydroxy-phenyl)-7-methyl-1-([^3H3]methyl)-3H-1,4-benzodiazepin-2-one]
- Specific binding in the amygdala (GABAA γ1 receptor [4]): 97%

Structure (SMILES): Cc1ccc2c(c1Cl)C(c1cc(O)ccc1F)=NCC(=O)N2[11CH3] [[^11C]-(II), [^11C]6-Chloro-5-(2-fluoro-5-hydroxy-phenyl)-1,7-dimethyl-3H-1,4-benzodiazepin-2-one]
- Time of brain uptake peaks (GABAA γ1 receptor [5]; comparison of tracers): earlier peaks than [^11C]-(I)

Structure (SMILES): Cc1nnc2n1-c1ccc(Cl)cc1C(c1ccccc1Cl)=NC2 [Triazolam]
- Potentiation of GABA-induced current in α2β2γ1 expressing oocytes (h-GABA-A α2β2γ1 receptor): ~60%

Structure (SMILES): [11CH3]N1C(=O)CN=C(c2cc(O)ccc2F)c2c1ccc(Cl)c2Cl [[^11C]-(I), [^11C]6,7-Dichloro-5-(2-fluoro-5-hydroxy-phenyl)-1-methyl-3H-1,4-benzodiazepin-2-one]
- Brain clearance (GABAA γ1 receptor [5]): Slower clearance

Structure (SMILES): CN1C(=O)CN=C(c2cc(O)ccc2F)c2c1ccc(Cl)c2Cl [Example 1, 6,7-dichloro-5-(2-fluoro-5-hydroxy-phenyl)-1-methyl-3H-1,4-benzodiazepin-2-one]
- γ2/γ1 Selectivity Ratio [1]: 12.7
- Efficacy (GABA)% (h-GABA-A α2β2γ1 receptor): 90%

Structure (SMILES): [3H]C([3H])([3H])N1C(=O)CN=C(c2cc(O)ccc2F)c2c1ccc(Cl)c2Cl [[^3H]-(I), 6,7-Dichloro-5-(2-fluoro-5-hydroxy-phenyl)-1-([^3H3]methyl)-3H-1,4-benzodiazepin-2-one]
- Specific binding in the amygdala (GABAA γ1 receptor [4]): 65%
